What was measured:
Cx43 protein = Cx43 protein knockdown in confluent fibroblast cultures; format: cell-based; settings: within two hours
Experimental: Swiss 3T3 fibroblasts were grown in Dulbecco's modified Eagle's medium (DMEM; Gibco) supplemented with 10% fetal calf serum (Labtech) and 1% penicillinstreptomycin solution (Sigma, Poole) in a 5% CO2 incubator at 37° C. Unless otherwise stated, the cells were maintained in this medium for most experiments. The cells were passaged by trypsinization and used at passages 6-10 at a confluency of Z 90%. Cells were plated on 13 mm glass coverslips in 24-well dishes (Nunc) with 4−5×10^5 cells per well containing 1 ml of medium. Cells reached confluency after 72 hours and were then used for experimentation.
In order to knock down Cx43 expression in the fibroblasts the media was replaced with serum-free DMEM containing either 20 μM asODNs or 20 μM control sODNs. This was incubated for two hours before being replaced with serum containing DMEM. The wounding assay was then carried out as above.

apoptotic cells = assay: TUNEL staining of granulation tissue; format: in vivo, mice; settings: 5, 7 and 10 days after wounding
Experimental: (§1) Male, 8 week old, ICR mice were used in the following experiments. All the mice were kept under specific pathogen-free conditions in an environmentally controlled clean room at University College London and all the experiments were carried out under UK Home Office regulations. Mice were anaesthetized by halothane inhalation. Four full-thickness excisional wounds of 6 mm diameter were made on the shaved back on either side of the dorsal midline with a 6 mm biopsy punch (Kai Industries). To each pair of wounds a single topical application of 50 μl of 1 μM Cx43 as ODN (SEQ. ID No. 2) (Sigma-Genosys) in 30% Pluronic F-127 gel (Sigma-Aldrich), chilled on ice, was made to one wound, and an identical application of 1 μM sense control sODNs was made to the other. […] R. and Becker, D. L. (2003). Targeting connexin 43 expression accelerates the rate of wound repair. Curr Biol 13, 1697-703). Each wound region was digitally photographed at the indicated time intervals, and the areas of the wounds were calculated. All wound areas were expressed as percentages of the initial wound areas. […]
Wound tissues were fixed in 4% formaldehyde buffered with PBS, and embedded in paraffin and sectioned. […] TUNEL stained section were imaged and positive cells were counted in the granulation tissue in three random fields, in the two sides and center of each wound (each field was 0.332 mm2).

skin wounds [1] = assay: Full-thickness excisional skin wound healing (wound area, re-epithelialization); format: in vivo, mice
Experimental: Male, 8 week old, ICR mice were used in the following experiments. All the mice were kept under specific pathogen-free conditions in an environmentally controlled clean room at University College London and all the experiments were carried out under UK Home Office regulations. Mice were anaesthetized by halothane inhalation. Four full-thickness excisional wounds of 6 mm diameter were made on the shaved back on either side of the dorsal midline with a 6 mm biopsy punch (Kai Industries). To each pair of wounds a single topical application of 50 μl of 1 μM Cx43 as ODN (SEQ. ID No. 2) (Sigma-Genosys) in 30% Pluronic F-127 gel (Sigma-Aldrich), chilled on ice, was made to one wound, and an identical application of 1 μM sense control sODNs was made to the other. […] Targeting connexin 43 expression accelerates the rate of wound repair. Curr Biol 13, 1697-703). Each wound region was digitally photographed at the indicated time intervals, and the areas of the wounds were calculated. All wound areas were expressed as percentages of the initial wound areas. In some series of experiments, wounds and their surrounding area, including the scab and epithelial margins, were harvested with an 8 mm biopsy punch (Kai Industries) at the indicated time intervals after mice were killed with an overdose of chloroform. A minimum of eight mice were used for each time point examined.

granulation tissue = assay: Granulation tissue area (H&E); format: in vivo, mice
Experimental: Male, 8 week old, ICR mice were used in the following experiments. All the mice were kept under specific pathogen-free conditions in an environmentally controlled clean room at University College London and all the experiments were carried out under UK Home Office regulations. Mice were anaesthetized by halothane inhalation. Four full-thickness excisional wounds of 6 mm diameter were made on the shaved back on either side of the dorsal midline with a 6 mm biopsy punch (Kai Industries). To each pair of wounds a single topical application of 50 μl of 1 μM Cx43 as ODN (SEQ. ID No. 2) (Sigma-Genosys) in 30% Pluronic F-127 gel (Sigma-Aldrich), chilled on ice, was made to one wound, and an identical application of 1 μM sense control sODNs was made to the other. […] R. and Becker, D. L. (2003). Targeting connexin 43 expression accelerates the rate of wound repair. Curr Biol 13, 1697-703). Each wound region was digitally photographed at the indicated time intervals, and the areas of the wounds were calculated. All wound areas were expressed as percentages of the initial wound areas. In some series of experiments, wounds and their surrounding area, including the scab and epithelial margins, were harvested with an 8 mm biopsy punch (Kai Industries) at the indicated time intervals after mice were killed with an overdose of chloroform. A minimum of eight mice were used for each time point examined. […]

skin wounds [2] = settings: Qiu 2003; Coutinho 2005; cited from earlier work
Ccl2 mRNA = assay: Real-Time PCR of Ccl2 at wound sites; format: in vivo, mice; settings: day 2; P<0.05 versus control sODN
Experimental: as §1
Gene specific primers and probe were obtained as TaqMan® Gene Expression Assays (Applied Biosystems) for Cx43, Ccl2, Co1α1, TNFα and TGFβ1. […] Each sample was analyzed in duplicate. […]

GTAATTGCGGCAGGAGGAATTGTTTCTGTC (antisense GTAATTGCGGCAGGAGGAATTGTTTCTGTC; in Pluronic F-127 gel, further chemistry not given here) [Cx43 asODN]
knockdown of Cx43 protein (Cx43 protein): 95% | numbers of TUNEL positive cells, control versus treated (apoptotic cells): no significant differences | macroscopic wound appearance and closure versus control wounds (skin wounds [1]; days 1 and 2): significantly smaller, drier, less inflamed and closed faster | re-epithelialisation versus control ODN treated wounds (skin wounds [1]; excisional and incisional wounds): re-epithelialise more rapidly | granulation tissue area versus untreated tissue (granulation tissue; day 5, difference not significant): slightly smaller | granulation tissue area versus control sODN treated wounds (granulation tissue; days 7, 10 and 14 after wounding): significantly (*P<0.05; **P<0.01) smaller | healing of skin wound and burn injury sites versus control sODN (skin wounds [2]): significantly accelerated healing | expression level of Ccl2 mRNA (Ccl2 mRNA): significantly reduced
